{"source": "patent US9346818B2", "about": "(priority 2012, dated 2016)", "key": {"[1]": {"system": "learning and memory disorder of mice induced by scopolamine", "assay": "Morris water maze test, senile dementia mice model induced by scopolamine", "format": "in vivo", "conditions": "for effect on learning and memory disorder of mice induced by scopolamine: Morris water maze, in comparison with model group / donepezil hydrochloride group; for latent period day 1 / latent period day 2 / latent period day 3 / latent period day 4 / latent period day 5 / times of crossing platform: scopolamine 1 mg/kg"}, "acetylcholinesterase": {"target": "acetylcholinesterase (Homo sapiens (Human), UniProt P22303)", "sequence (P22303 32-614, species assumed)": "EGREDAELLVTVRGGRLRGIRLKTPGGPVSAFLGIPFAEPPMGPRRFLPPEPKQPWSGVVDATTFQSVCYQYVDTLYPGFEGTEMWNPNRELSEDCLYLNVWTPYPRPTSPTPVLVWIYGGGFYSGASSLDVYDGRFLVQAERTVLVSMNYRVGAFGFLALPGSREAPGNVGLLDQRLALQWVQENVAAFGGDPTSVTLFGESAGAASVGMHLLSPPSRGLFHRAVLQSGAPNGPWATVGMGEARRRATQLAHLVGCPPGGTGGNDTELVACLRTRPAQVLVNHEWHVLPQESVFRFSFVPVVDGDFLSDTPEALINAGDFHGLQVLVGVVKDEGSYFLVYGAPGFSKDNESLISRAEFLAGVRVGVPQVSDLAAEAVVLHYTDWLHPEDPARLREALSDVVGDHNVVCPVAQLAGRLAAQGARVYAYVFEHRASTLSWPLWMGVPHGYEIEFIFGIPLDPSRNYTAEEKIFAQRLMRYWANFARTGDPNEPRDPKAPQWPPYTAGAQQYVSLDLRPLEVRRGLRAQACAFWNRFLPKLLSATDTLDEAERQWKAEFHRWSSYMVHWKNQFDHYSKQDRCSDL", "assay": "biochemical", "format": "biochemical", "conditions": "for potency on acetylcholinesterase compared with positive control drug donepezil hydrochloride: in vitro, enzymology level"}, "malonaldehyde (MDA)": {"system": "malonaldehyde (MDA)", "assay": "Biochemical indicators of brain tissues (MDA assay) in scopolamine mice", "format": "in vivo", "conditions": "brain tissue homogenate, 5 mg/kg", "method": "After the behavior test was complete, the mice were sacrificed, brain tissues were collected (operated on an ice plate) and prepared into 10% of tissue homogenate with pre-cooled physiological saline, centrifuged (3000 rpm, 10 min), and the supernatant was subjected to malonaldehyde (MDA) assay following the kits."}, "[2]": {"conditions": "modified Ellman method, read-out: IC50 (nM), inhibition activity on acetylcholinesterase"}}, "note": "Entries after “also recorded” stand apart in the source; their conditions may differ. Like-named read-outs stand apart in the source and are kept apart here.", "data": [{"compound": "O=C1c2cc3c(cc2C(=O)N1CCC1CCN(Cc2cccc(F)c2)CC1)OCO3", "note": "[Compound I-3, 6-[2-[1-[(3-fluorophenyl)methyl]-4-piperidyl]ethyl]-[1,3]dioxolo[4,5-f]isoindole-5,7-dione]", "values": [{"measurement": "effect on learning and memory disorder of mice induced by scopolamine", "setting": "[1]", "result": "decreases significantly"}, {"measurement": "latent period day 1", "setting": "[1]; Table 3, 5 mg/kg intragastric", "result": "56.5 ± 8.5", "unit": "s"}, {"measurement": "latent period day 2", "setting": "[1]; Table 3, 5 mg/kg intragastric", "result": "56.5 ± 8.6", "unit": "s"}, {"measurement": "latent period day 3", "setting": "[1]; Table 3, 5 mg/kg intragastric", "result": "60 ± 0", "unit": "s"}, {"measurement": "latent period day 4", "setting": "[1]; Table 3, 5 mg/kg intragastric", "result": "43.9 ± 15.4", "unit": "s"}, {"measurement": "latent period day 5", "setting": "[1]; Table 3, 5 mg/kg intragastric", "result": "34.0 ± 19.5", "unit": "s"}, {"measurement": "times of crossing platform", "setting": "[1]; Table 3, 5 mg/kg intragastric", "result": "1.9 ± 1.5"}, {"measurement": "latent period day 1", "setting": "[1]; Table 3, 10 mg/kg intragastric", "result": "59.3 ± 2.6", "unit": "s"}, {"measurement": "latent period day 2", "setting": "[1]; Table 3, 10 mg/kg intragastric", "result": "56.3 ± 9.7", "unit": "s"}, {"measurement": "latent period day 3", "setting": "[1]; Table 3, 10 mg/kg intragastric", "result": "55.5 ± 9.5", "unit": "s"}, {"measurement": "latent period day 4", "setting": "[1]; Table 3, 10 mg/kg intragastric", "result": "49.4 ± 15.7", "unit": "s"}, {"measurement": "latent period day 5", "setting": "[1]; Table 3, 10 mg/kg intragastric", "result": "45.0 ± 15.0", "unit": "s"}, {"measurement": "times of crossing platform", "setting": "[1]; Table 3, 10 mg/kg intragastric", "result": "1.1 ± 1.1"}, {"measurement": "potency on acetylcholinesterase compared with positive control drug donepezil hydrochloride", "setting": "acetylcholinesterase", "result": "slightly lower potency than the positive control drug"}, {"measurement": "IC50", "setting": "acetylcholinesterase; [2]", "result": 269, "unit": "nM"}]}, {"compound": "CC1(C)c2cc3c(cc2C(=O)N1CCC1CCN(Cc2ccccc2F)CC1)OCO3", "note": "[Compound I-14, 6-[2-[1-[(2-fluorophenyl)methyl]-4-piperidyl]ethyl]-7,7-dimethyl-[1,3]dioxolo[4,5-f]isoindol-5-one]", "values": [{"measurement": "MDA(nmol/mgprot)", "setting": "malonaldehyde (MDA)", "result": "7.36 ± 1.3", "unit": "nmol/mgprot"}, {"measurement": "latent period day 1", "setting": "[1]; Table 4, 5 mg/kg intragastric", "result": "57.1 ± 7.6", "unit": "s"}, {"measurement": "latent period day 2", "setting": "[1]; Table 4, 5 mg/kg intragastric", "result": "60 ± 0", "unit": "s"}, {"measurement": "latent period day 3", "setting": "[1]; Table 4, 5 mg/kg intragastric", "result": "60 ± 0", "unit": "s"}, {"measurement": "latent period day 4", "setting": "[1]; Table 4, 5 mg/kg intragastric", "result": "54.2 ± 8.9", "unit": "s"}, {"measurement": "latent period day 5", "setting": "[1]; Table 4, 5 mg/kg intragastric", "result": "49.9 ± 14.7", "unit": "s"}, {"measurement": "times of crossing platform", "setting": "[1]; Table 4, 5 mg/kg intragastric", "result": "1.3 ± 1.8"}, {"measurement": "potency on acetylcholinesterase compared with positive control drug donepezil hydrochloride", "setting": "acetylcholinesterase", "result": "relative low activity"}, {"measurement": "IC50", "setting": "acetylcholinesterase; read-out: IC50 (nM), inhibition activity on acetylcholinesterase", "result": "> 2000", "unit": "nM"}]}, {"compound": "CC1(C)c2cc3c(cc2C(=O)N1CCC1CCN(Cc2cccc(F)c2)CC1)OCO3", "note": "[Compound I-15, 6-[2-[1-[(3-fluorophenyl)methyl]-4-piperidyl]ethyl]-7,7-dimethyl-[1,3]dioxolo[4,5-f]isoindol-5-one]", "values": [{"measurement": "MDA(nmol/mgprot)", "setting": "malonaldehyde (MDA)", "result": "7.41 ± 2.1", "unit": "nmol/mgprot"}, {"measurement": "latent period day 1", "setting": "[1]; Table 4, 5 mg/kg intragastric", "result": "60 ± 0", "unit": "s"}, {"measurement": "latent period day 2", "setting": "[1]; Table 4, 5 mg/kg intragastric", "result": "58.9 ± 4.4", "unit": "s"}, {"measurement": "latent period day 3", "setting": "[1]; Table 4, 5 mg/kg intragastric", "result": "56.5 ± 8.3", "unit": "s"}, {"measurement": "latent period day 4", "setting": "[1]; Table 4, 5 mg/kg intragastric", "result": "57.8 ± 5.3", "unit": "s"}, {"measurement": "latent period day 5", "setting": "[1]; Table 4, 5 mg/kg intragastric", "result": "51.1 ± 10.9", "unit": "s"}, {"measurement": "times of crossing platform", "setting": "[1]; Table 4, 5 mg/kg intragastric", "result": "1.9 ± 1.5"}, {"measurement": "potency on acetylcholinesterase compared with positive control drug donepezil hydrochloride", "setting": "acetylcholinesterase", "result": "relative low activity"}, {"measurement": "IC50", "setting": "acetylcholinesterase; [2]", "result": "> 2000", "unit": "nM"}]}, {"compound": "O=C1c2cc3c(cc2C2(CC2)N1CCC1CCN(Cc2ccccc2)CC1)OCO3", "note": "[Compound I-17, 6-[2-(1-benzyl-4-piperidyl)ethyl]spiro[[1,3]dioxolo[4,5-f]isoindole-7,1′-cyclopropane]-5-one]", "values": [{"measurement": "effect on learning and memory disorder of mice induced by scopolamine", "setting": "[1]", "result": "superior to the donepezil hydrochloride group; also recorded: had the effect of improving the learning and memory disorder of mice induced by scopolamine; also recorded: stronger effects of improving learning and memory"}, {"measurement": "latent period day 1", "setting": "[1]; Table 2, 5 mg/kg intragastric", "result": "56.8 ± 8.6", "unit": "s"}, {"measurement": "latent period day 2", "setting": "[1]; Table 2, 5 mg/kg intragastric", "result": "60 ± 0", "unit": "s"}, {"measurement": "latent period day 3", "setting": "[1]; Table 2, 5 mg/kg intragastric", "result": "48.7 ± 15.7", "unit": "s"}, {"measurement": "latent period day 4", "setting": "[1]; Table 2, 5 mg/kg intragastric", "result": "56.7 ± 8.1", "unit": "s"}, {"measurement": "latent period day 5", "setting": "[1]; Table 2, 5 mg/kg intragastric", "result": "47.2 ± 13.4", "unit": "s"}, {"measurement": "times of crossing platform", "setting": "[1]; Table 2, 5 mg/kg intragastric", "result": "1.8 ± 2.5"}, {"measurement": "latent period day 1", "setting": "[1]; Table 6, 5 mg/kg intragastric", "result": "57.3 ± 6.7", "unit": "s"}, {"measurement": "latent period day 2", "setting": "[1]; Table 6, 5 mg/kg intragastric", "result": "56.3 ± 9.1", "unit": "s"}, {"measurement": "latent period day 3", "setting": "[1]; Table 6, 5 mg/kg intragastric", "result": "52.5 ± 10.4", "unit": "s"}, {"measurement": "latent period day 4", "setting": "[1]; Table 6, 5 mg/kg intragastric", "result": "46.4 ± 16.6", "unit": "s"}, {"measurement": "latent period day 5", "setting": "[1]; Table 6, 5 mg/kg intragastric", "result": "43.7 ± 11.8", "unit": "s"}, {"measurement": "times of crossing platform", "setting": "[1]; Table 6, 5 mg/kg intragastric", "result": "2.00 ± 1.41"}, {"measurement": "latent period day 1", "setting": "[1]; Table 6, 10 mg/kg intragastric", "result": "59.9 ± 0.3", "unit": "s"}, {"measurement": "latent period day 2", "setting": "[1]; Table 6, 10 mg/kg intragastric", "result": "58.1 ± 6.2", "unit": "s"}, {"measurement": "latent period day 3", "setting": "[1]; Table 6, 10 mg/kg intragastric", "result": "51.1 ± 12.0", "unit": "s"}, {"measurement": "latent period day 4", "setting": "[1]; Table 6, 10 mg/kg intragastric", "result": "42.1 ± 15.5", "unit": "s"}, {"measurement": "latent period day 5", "setting": "[1]; Table 6, 10 mg/kg intragastric", "result": "39.3 ± 16.7", "unit": "s"}, {"measurement": "times of crossing platform", "setting": "[1]; Table 6, 10 mg/kg intragastric", "result": "2.60 ± 1.96"}, {"measurement": "IC50", "setting": "acetylcholinesterase; IC50 (nM), inhibition activity on acetylcholinesterase, modified Ellman method", "result": 202, "unit": "nM"}, {"measurement": "potency on acetylcholinesterase compared with positive control drug donepezil hydrochloride", "setting": "acetylcholinesterase", "result": "slightly lower potency than the positive control drug; also recorded: comparable inhibition activity on acetylcholinesterase with donepezil hydrochloride"}]}]}
